Results on 4 compounds are retold here after paper PMC2707755 (Organic letters, 2009).

Where two headings read alike, the source gives them in different places.

Data set [1] concerns PP-1. The settings on record: cited from earlier work.
Data set [2] is described as follows: cytotoxicity against A549 lung adenocarcinoma cell line. The following applies: human, A549 lung adenocarcinoma cells. In kind it is cell-based.
Data set [3] in a line: cytotoxicity against HT29 colon adenocarcinoma cell line. The format is cell-based. The settings on record: human, HT29 colon adenocarcinoma cells.
A short description of data set [4]: cytotoxicity against MCF7 breast carcinoma cell line. The settings on record: human, MCF7 breast carcinoma cells. The format is cell-based.
The subject of data set [5] is PP-1. The experiment in a line: PP inhibition assay, PP-1. In kind it is biochemical. The settings on record: triplicate.
Data set [6] deals with PP-2A. The experiment in a line: PP inhibition assay, PP-2A. The format is biochemical. The following applies: triplicate.
Data set [7] relates to PP-2A. The settings on record: read-out: IC50 PP-2A; cited from earlier work.
The next data set relates to A549 lung adenocarcinoma. The experiment in a line: cytotoxicity against A549 lung adenocarcinoma cell line. In kind it is cell-based. The following applies: read-out: cytotoxicity IC50, A549; A549 lung adenocarcinoma.
A further data set concerns Du145 colon carcinoma. The experiment in a line: cytotoxicity against Du145 colon carcinoma cell line. The format is cell-based. The following applies: read-out: cytotoxicity IC50, Du145.
Data set [8] has as its system HT29 colon adenocarcinoma. The experiment in a line: cytotoxicity against HT29 colon adenocarcinoma cell line. The format is cell-based. The following applies: read-out: cytotoxicity IC50, HT29; HT29 colon adenocarcinoma.
A further data set has as its system MCF7 breast carcinoma. The experiment in a line: cytotoxicity against MCF7 breast carcinoma cell line. In kind it is cell-based. The following applies: read-out: cytotoxicity IC50, MCF7; MCF7 breast carcinoma.
Setting [9] is: read-out: IC50 PP-1, pH 7.5, pH 7.5.
The mark [10] stands for this setting: read-out: IC50 PP-1, pH 8.4, pH 8.4.

As to C3′ epi-TTM, the “less effective at PP-1 inhibition than 1” value in the data set with PP-1 [1] (relative to 1) was ~ 1000 fold.

`CO[C@H]([C@H](O)CC(=O)[C@@H](C)[C@@H](O)CC[C@@H](C)[C@@H]1O[C@]2(CC[C@@H](C)[C@H](CC[C@H](C)C(C)=O)O2)CC[C@@H]1C)[C@H](OC(=O)C[C@@H](O)C1=C(C)C(=O)OC1=O)C(C)C` [compound 1, Tautomycin, reference compound]: the IC50 in data set [2] worked out at 1660 ± 140 nM; in data set [3], 590 ± 10 nM; in [4] it was 1800 ± 120 nM; with PP-1 [5] (setting [9]), 0.58 nM; in the data set with PP-1 [5] (setting [10]) it was 0.86 nM; in the data set with PP-2A [6] (read-out: IC50 PP-2A, pH 7.5), 15 nM. For the same compound, the IC50 in the data set on PP-2A [6] (read-out: IC50 PP-2A, pH 8.4) is 42.6 nM.

As for tautomycetin [compound 2], the “higher affinity for PP-1 than for PP-2A” value in the data set on PP-1 [1] (PP-1 over PP-2A) was roughly 40 fold. For the same compound, the IC50 in the data set on PP-1 [1] (read-out: IC50 PP-1) was 1.6 nM; with PP-2A [7], 62 nM.

Take 3′-deshydroxy-TTM [compound 3]: the IC50 in the data set on A549 lung adenocarcinoma worked out at 26600 ± 6400 nM; with Du145 colon carcinoma, 4240 ± 110 nM; in [8], 7350 ± 190 nM; in the data set with MCF7 breast carcinoma, 15600 ± 900 nM; with PP-1 [5] (setting [9]), 470 nM; in the data set with PP-1 [5] (setting [10]) it was 677 nM. Further, the IC50 in the data set on PP-2A [6] (read-out: IC50 PP-2A, pH 7.5) came out at 15600 nM; with PP-2A [6] (read-out: IC50 PP-2A, pH 8.4), 15300 nM.

Usually IC50 stands for the concentration that inhibits the measured activity by half.
